Measurements published in patent publication US12171755B2, “PAPD5 inhibitors and methods of use thereof” (Children's Medical Center Corporation, priority 2017, dated 2024).

Target: T1, PAPD5 (Homo sapiens, UniProt Q8NDF8)
T1 construct: made in house
Assay: High-throughput luminescence (KinaseGlo) RNA polyadenylation assay, ATP utilization by recombinant PAPD5
Format: biochemical
Conditions: for Fold-change determined at compound concentration 33 μM / Fold-change determined at compound concentration 100 μM / Fold-change determined at compound concentration 10 μM: Table 4 (entries of Table 5), ratio of luminescence with inhibitor to DMSO; for Fold-change determined at compound concentration 33 μM: 33 μM compound; for Fold-change determined at compound concentration 100 μM: higher = higher inhibition; for Fold-change determined at compound concentration 10 μM: 10 μM compound
Outline: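 Recombinant PAPD5 polyadenylates an oligonucleotide substrate using ATP, and remaining ATP is read by KinaseGlo luciferase luminescence. Compound was incubated for 2 h at room temperature, then with luciferase for 10 min.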

T1 sequence (Q8NDF8 68-698 isoform Q8NDF8-5): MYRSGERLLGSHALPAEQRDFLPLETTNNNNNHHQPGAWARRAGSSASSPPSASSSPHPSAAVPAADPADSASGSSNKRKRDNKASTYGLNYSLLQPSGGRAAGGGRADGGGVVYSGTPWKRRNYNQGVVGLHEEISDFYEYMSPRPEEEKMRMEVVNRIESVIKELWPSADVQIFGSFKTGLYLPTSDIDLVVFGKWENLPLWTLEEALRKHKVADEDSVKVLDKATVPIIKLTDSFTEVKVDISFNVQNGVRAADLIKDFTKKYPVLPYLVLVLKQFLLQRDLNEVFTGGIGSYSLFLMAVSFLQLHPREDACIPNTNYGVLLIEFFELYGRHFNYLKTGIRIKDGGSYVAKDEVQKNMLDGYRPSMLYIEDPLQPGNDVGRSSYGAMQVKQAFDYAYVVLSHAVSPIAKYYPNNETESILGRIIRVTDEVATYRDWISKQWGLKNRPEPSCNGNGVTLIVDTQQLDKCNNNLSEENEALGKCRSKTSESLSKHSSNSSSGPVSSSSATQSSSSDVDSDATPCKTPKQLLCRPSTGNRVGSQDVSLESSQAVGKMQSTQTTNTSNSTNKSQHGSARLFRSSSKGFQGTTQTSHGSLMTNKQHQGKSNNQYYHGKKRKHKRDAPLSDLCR

Row | Structure (SMILES) | Fold-change determined at compound concentration 33 μM | Fold-change determined at compound concentration 100 μM (100 μM compound) | Fold-change determined at compound concentration 10 μM | fold change at 100 μM concentration in the assay (100 μM compound)
1 | CC(C)Cn1c(=O)c(-c2ccc(C(=O)Nc3ccc4c(c3)OCCO4)cc2)nc2ccccc21 [Entry 219, N-(2,3-dihydro-1,4-benzodioxin-6-yl)-4-[4-(2-methylpropyl)-3-oxoquinoxalin-2-yl]benzamide] | 1.086 | 1.339 | – | –
2 | Cc1ccc2[nH]c(=O)c3cc(C(=O)O)sc3c2c1 [Entry 220, 8-methyl-4-oxo-5H-thieno[3,2-c]quinoline-2-carboxylic acid] | 1.068 | 1.277 | – | –
3 | COc1ccc(C(=O)N2CCc3ccc(CNS(C)(=O)=O)cc32)cc1 [Entry 221, N-[[1-(4-methoxybenzoyl)-2,3-dihydroindol-6-yl]methyl]methanesulfonamide] | 1.084 | 1.585 | – | –
4 | O=C(O)Cc1c2ccccc2n2c1[nH]c(=O)c1ccccc12 [Entry 222, 2-(5-oxo-6H-indolo[1,2-a]quinazolin-7-yl)acetic acid] | 1.05 | 1.205 | – | –
5 | COc1cc(NS(=O)(=O)c2ccc3oc(=O)c4ncn(C)c4c3c2)cc(OC)c1 [Entry 223, N-(3,5-dimethoxyphenyl)-1-methyl-4-oxochromeno[3,4-d]imidazole-8-sulfonamide] | 1.207 | 1.254 | – | –
6 | COc1cc2[nH]c3c(SCC(N)=O)ncnc3c2cc1OC [Entry 224, 2-[(7,8-dimethoxy-5H-pyrimido[5,4-b]indol-4-yl)sulfanyl]acetamide] | 1.193 | 1.37 | – | –
7 | COc1cccc(-c2nnc3n(CCc4ccccc4)c(=O)c4ccccc4n23)c1O [Entry 225, (1Z)-1-(5-methoxy-6-oxocyclohexa-2,4-dien-1-ylidene)-4-(2-phenylethyl)-2H-[1,2,4]triazolo[4,3-a]quinazolin-5-one] | 1.173 | 1.219 | – | –
8 | Cc1cccc2c1-c1sc(C(=O)NCCCN3CCC(C)CC3)cc1CO2 [Entry 226, 9-methyl-N-[3-(4-methylpiperidin-1-yl)propyl]-4H-thieno[3,2-c]chromene-2-carboxamide] | 1.095 | 1.228 | – | –
9 | Cn1[nH]c(-c2cccnc2)c2nc(-c3ccccc3OC(F)F)nc1-2 [Entry 227, 5-[2-(difluoromethoxy)phenyl]-1-methyl-3-pyridin-3-yl-2H-imidazo[4,5-c]pyrazole] | 1.097 | 1.425 | – | –
10 | CCOC(=O)c1c(C)nc2n(C)c3ccccc3n12 [Entry 228, ethyl 2,9-dimethyl-9H-benzo[d]imidazo[1,2-a]imidazole-3-carboxylate] | 1.146 | 1.3 | – | –
11 | O=C(O)CSc1nnc2n(-c3ccccc3)c3ccccc3n12 [Entry 229, [(9-Phenyl-9H-[1,2,4]triazolo[4,3-a]benzimidazol-3-yl)thio]acetic acid] | 1.249 | 1.704 | – | –
12 | COc1ccc(Cc2nccc3cc(OC)c(OC)cc23)cc1OC [Entry 237, 1-(3,4-dimethoxybenzyl)-6,7-dimethoxyisoquinoline] | 1.166 | 1.362 | – | –

Now from value to molecule:

Row | Fold-change determined at compound concentration 33 μM | Fold-change determined at compound concentration 100 μM (100 μM compound) | Fold-change determined at compound concentration 10 μM | fold change at 100 μM concentration in the assay (100 μM compound) | Structure (SMILES)
13 | 1.053 | 1.527 | – | – | Cc1nc(-c2cnccn2)nc2c1CC(=O)N2CC1CCCO1 (stereo not drawn) [Entry 230, 4-methyl-2-(2-pyrazinyl)-7-(tetrahydro-2-furanylmethyl)-5,7-dihydro-6H-pyrrolo[2,3-d]pyrimidin-6-one]
14 | 1.068 | 1.36 | – | – | CCn1c(=S)sc2c(=O)n3[nH]c(=O)c4ccccc4c3nc21 [Entry 231, 11-ethyl-10-thioxo-10,11-dihydro-6H-[1,3]thiazolo[4′,5′:4,5]pyrimido[2,1-a]phthalazine-5,8-dione]
15 | 1.198 | 1.342 | – | – | CC1CCN(C(=O)CSc2nc3c(c(=O)n2Cc2ccccc2)SCC3)CC1 [Entry 232, 3-benzyl-2-((2-(4-methylpiperidin-1-yl)-2-oxoethyl)thio)-6,7-dihydrothieno[3,2-d]pyrimidin-4(3H)-one]
16 | 1.256 | 1.859 | – | – | CC1Oc2ccc(C(=O)CSc3nc(-c4ccc(Cl)cc4)c(C#N)c(=O)[nH]3)cc2NC1=O (stereo not drawn) [Entry 233, 4-(4-chlorophenyl)-2-{[2-(2-methyl-3-oxo-3,4-dihydro-2H-1,4-benzoxazin-6-yl)-2-oxoethyl]sulfanyl}-6-oxo-1,6-dihydro-5-pyrimidinecarbonitrile]
17 | 1.319 | 1.648 | – | – | CC(=O)Nc1ccc2nc3c(=O)[nH]c(=O)[nH]c3nc2c1 [Entry 234, N-(2,4-dioxo-1H-benzo[g]pteridin-8-yl)acetamide]
18 | 1.177 | 1.452 | – | – | N#Cc1c[nH]n2c(NC3CCCCC3)c(-c3ccccc3F)nc12 [Entry 235, 3-(cyclohexylamino)-2-(2-fluorophenyl)-5H-imidazo[1,2-b]pyrazole-7-carbonitrile]
19 | 1.39 | 1.75 | 1.272 | – | CN1C(=O)C(c2c(-c3ccc4ccccc4c3)[nH]c3[nH]c(=O)[nH]c(=O)c23)c2ccccc21 (stereo not drawn) [Entry 236, 5-(1-methyl-2-oxo-2,3-dihydro-1H-indol-3-yl)-6-(2-naphthyl)-1H-pyrrolo[2,3-d]pyrimidine-2,4(3H,7H)-dione]
20 | 1.119 | 1.238 | – | – | Cc1ccc(Cn2c(SCc3ccc(C(=O)O)cc3)nc3cccnc32)cc1 [Entry 238, 4-[[3-[(4-methylphenyl)methyl]imidazo[4,5-b]pyridin-2-yl]sulfanylmethyl]benzoic acid]
21 | 1.125 | 1.314 | – | – | CN1CCCc2cc(C(=O)NC3CCCCC3)sc21 [Entry 239, N~2~cyclohexyl-7-methyl-4,5,6,7-tetrahydrothieno[2,3-b]pyridine-2-carboxamide]
22 | 1.091 | 1.206 | – | – | Cc1ccc(-n2nc3c(=O)n(CCCC(=O)NCc4ccccc4C)nc(C)c3c2C)cc1 [Entry 240, 4-[3,4-dimethyl-2-(4-methylphenyl)-7-oxopyrazolo[3,4-d]pyridazin-6-yl]-N-[(2-methylphenyl)methyl]butanamide]
23 | 1.099 | 1.249 | – | – | NC(=O)CN1c2ccc(F)cc2-c2ccccc2S1(=O)=O [Entry 241, 2-(9-fluoro-5,5-dioxido-6H-dibenzo[c,e][1,2]thiazin-6-yl)acetamide]
24 | 1.068 | 1.283 | – | – | O=C(O)c1ccc(N2C(=O)c3[nH]nc(-c4ccccc4)c3C2c2cccc(O)c2)cc1 (stereo not drawn) [Entry 242, 4-[4-(3-hydroxyphenyl)-6-oxo-3-phenyl-1,4-dihydropyrrolo[3,4-c]pyrazol-5-yl]benzoic acid]
25 | 1.324 | 1.471 | – | – | O=c1cc(-c2cccc3c2Sc2ccccc2S3)oc(N2CCOCC2)c1 [Entry 243, 2-morpholin-4-yl-6-thianthren-1-ylpyran-4-one]
26 | 1.737 | 2.572 | 1.32 | – | N#C/C(=C\c1ccc(-c2ccc(C(=O)O)cc2)o1)C(=O)Nc1ccccc1C(=O)O [Entry 244, 2-[[(E)-3-[5-(4-carboxyphenyl)furan-2-yl]-2-cyanoprop-2-enoyl]amino]benzoic acid]
27 | 1.236 | 1.638 | – | – | N#C/C(=C\c1ccc(-c2ccc(Cl)c(C(=O)O)c2)o1)c1nc2ccccc2[nH]1 [Entry 245, 5-[5-[(E)-2-(1H-benzimidazol-2-yl)-2-cyanoethenyl]furan-2-yl]-2-chlorobenzoic acid]
28 | – | – | – | 3.1 | C=CCNC(=O)c1sc(=S)n2c1[nH]c(=O)c1cc3c(cc12)OCO3 [N-allyl-5-oxo-1-thioxo-4,5-dihydro[1,3]dioxolo[4,5-g][1,3]thiazolo[3,4-a]quinazoline-3-carboxamide]
